In patent US10196378B2, “Inhibitors of BCR-ABL mutants and use thereof” (THE REGENTS OF THE UNIVERSITY OF MICHIGAN, priority 2016, dated 2019):

Legend:
[1] = tested on: parental IL-3 dependent Ba/F3 cells; assay: cells; conditions: Mus musculus, BaF3, read-out: GI50, Ba/F3 parental
PDGFRα = PDGFRα (Homo sapiens (Human), UniProt P16234); assay: NanoSyn single-concentration kinase inhibition; type: biochemical; conditions: read-out: % inhibition at 100 nM, PDGFRα
VEGFR2 (KDR) [2] = biological target: T1, VEGFR2 (KDR) (Homo sapiens (Human), UniProt P35968); assay: biochemical; conditions: read-out: % inhibition at 100 nM, VEGFR2 (KDR), 100 nM
FGFR3 = FGFR3 (Homo sapiens (Human), UniProt P22607); assay: NanoSyn single-concentration kinase inhibition; type: biochemical; conditions: read-out: % inhibition at 100 nM, FGFR3
MAP4K5 = MAP4K5 (Homo sapiens (Human), UniProt Q9Y4K4); assay: NanoSyn single-concentration kinase inhibition; type: biochemical; conditions: read-out: % inhibition at 100 nM, MAP4K5
BV-173R = assay: Growth inhibition (GI50) in BV-173R CML cells; type: cell-based; conditions: read-out: GI50, BV-173R
FGFR1 = FGFR1 (Homo sapiens (Human), UniProt P11362); assay: NanoSyn single-concentration kinase inhibition; type: biochemical; conditions: read-out: % inhibition at 100 nM, FGFR1
[3] = phase I trial, cited from earlier work
VEGFR3 (FLT4) = VEGFR3 (FLT4) (Homo sapiens (Human), UniProt P35916); assay: NanoSyn single-concentration kinase inhibition; type: biochemical; conditions: read-out: % inhibition at 100 nM, VEGFR3 (FLT4)
VEGFR1 (FLT1) = VEGFR1 (FLT1) (Homo sapiens (Human), UniProt P17948); assay: NanoSyn single-concentration kinase inhibition; type: biochemical
C-Raf = C-Raf (Homo sapiens (Human), UniProt P04049); assay: NanoSyn single-concentration kinase inhibition; type: biochemical; conditions: read-out: % inhibition at 100 nM, C-Raf
EPH-A3 = EPH-A3 (Homo sapiens (Human), UniProt P29320); assay: NanoSyn single-concentration kinase inhibition; type: biochemical; conditions: read-out: % inhibition at 100 nM, EPH-A3
Lyn-A = Lyn-A (Homo sapiens (Human), UniProt P07948); assay: NanoSyn single-concentration kinase inhibition; type: biochemical; conditions: read-out: % inhibition at 100 nM, Lyn-A
Tie2 = Tie2 (Homo sapiens (Human), UniProt Q02763); assay: NanoSyn single-concentration kinase inhibition; type: biochemical; conditions: read-out: % inhibition at 100 nM, Tie2
BV-173 = assay: Growth inhibition (GI50) in BV-173 CML cells; type: cell-based; conditions: Homo sapiens, BV-173, read-out: GI50, BV-173
FLT3 = FLT3 (Homo sapiens (Human), UniProt P36888); assay: NanoSyn single-concentration kinase inhibition; type: biochemical; conditions: read-out: % inhibition at 100 nM, FLT3
VEGFR2 (KDR) [4] = biological target: T1, VEGFR2 (KDR)
Abl2/Arg = Abl2/Arg (Homo sapiens (Human), UniProt P42684); assay: NanoSyn single-concentration kinase inhibition; type: biochemical; conditions: read-out: % inhibition at 100 nM, Abl2/Arg
Csk = Csk (Homo sapiens (Human), UniProt P41240); assay: NanoSyn single-concentration kinase inhibition; type: biochemical; conditions: read-out: % inhibition at 100 nM, Csk
PDGFRβ = PDGFRβ (Homo sapiens (Human), UniProt P09619); assay: NanoSyn single-concentration kinase inhibition; type: biochemical; conditions: read-out: % inhibition at 100 nM, PDGFRβ
Lck = Lck (Homo sapiens (Human), UniProt P06239); assay: NanoSyn single-concentration kinase inhibition; type: biochemical; conditions: read-out: % inhibition at 100 nM, Lck
K562 = assay: Growth inhibition (GI50) in K562 CML cells; type: cell-based; conditions: Homo sapiens, K562, read-out: GI50, K562
[5] = tested on: chronic myelogenous leukemia; conditions: CML patients; about 30% prior to any targeted therapy; cited from earlier work

T1 sequence (P35968 20-1356, species assumed): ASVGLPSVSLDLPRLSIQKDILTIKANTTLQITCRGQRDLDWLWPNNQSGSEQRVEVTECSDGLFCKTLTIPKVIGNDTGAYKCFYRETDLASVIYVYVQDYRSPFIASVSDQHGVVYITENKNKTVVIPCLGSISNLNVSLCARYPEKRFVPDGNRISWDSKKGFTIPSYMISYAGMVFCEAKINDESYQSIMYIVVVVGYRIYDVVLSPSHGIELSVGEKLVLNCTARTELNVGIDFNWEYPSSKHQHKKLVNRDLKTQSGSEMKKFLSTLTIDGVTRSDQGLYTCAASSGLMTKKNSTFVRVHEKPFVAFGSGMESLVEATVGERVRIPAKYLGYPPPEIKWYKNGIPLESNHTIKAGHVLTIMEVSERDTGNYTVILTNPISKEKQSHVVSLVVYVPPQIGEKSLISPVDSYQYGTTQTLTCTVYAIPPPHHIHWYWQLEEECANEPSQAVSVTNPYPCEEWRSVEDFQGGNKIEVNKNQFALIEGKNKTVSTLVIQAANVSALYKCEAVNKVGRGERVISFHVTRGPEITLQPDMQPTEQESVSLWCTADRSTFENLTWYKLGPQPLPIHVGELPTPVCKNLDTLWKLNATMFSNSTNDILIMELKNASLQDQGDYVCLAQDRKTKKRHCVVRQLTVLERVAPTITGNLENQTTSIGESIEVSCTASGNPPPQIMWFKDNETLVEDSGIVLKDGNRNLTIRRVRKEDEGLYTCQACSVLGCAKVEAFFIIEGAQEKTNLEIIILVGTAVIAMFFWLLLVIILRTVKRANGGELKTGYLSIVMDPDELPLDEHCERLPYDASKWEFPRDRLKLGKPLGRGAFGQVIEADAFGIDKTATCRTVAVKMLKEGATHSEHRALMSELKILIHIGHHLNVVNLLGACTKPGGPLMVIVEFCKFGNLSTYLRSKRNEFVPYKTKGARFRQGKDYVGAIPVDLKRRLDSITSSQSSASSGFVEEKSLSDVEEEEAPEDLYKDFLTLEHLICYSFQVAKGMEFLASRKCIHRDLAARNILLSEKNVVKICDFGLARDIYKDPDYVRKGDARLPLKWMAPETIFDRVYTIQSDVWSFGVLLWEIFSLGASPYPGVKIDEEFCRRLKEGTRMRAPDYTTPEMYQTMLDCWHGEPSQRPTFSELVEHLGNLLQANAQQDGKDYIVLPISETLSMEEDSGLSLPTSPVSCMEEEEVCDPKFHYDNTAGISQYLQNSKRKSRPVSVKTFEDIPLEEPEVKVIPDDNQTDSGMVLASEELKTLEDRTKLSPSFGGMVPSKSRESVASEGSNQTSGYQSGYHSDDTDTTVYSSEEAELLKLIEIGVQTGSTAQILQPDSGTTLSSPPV
Sequence of VEGFR1 (FLT1) (P17948 27-1338, species assumed): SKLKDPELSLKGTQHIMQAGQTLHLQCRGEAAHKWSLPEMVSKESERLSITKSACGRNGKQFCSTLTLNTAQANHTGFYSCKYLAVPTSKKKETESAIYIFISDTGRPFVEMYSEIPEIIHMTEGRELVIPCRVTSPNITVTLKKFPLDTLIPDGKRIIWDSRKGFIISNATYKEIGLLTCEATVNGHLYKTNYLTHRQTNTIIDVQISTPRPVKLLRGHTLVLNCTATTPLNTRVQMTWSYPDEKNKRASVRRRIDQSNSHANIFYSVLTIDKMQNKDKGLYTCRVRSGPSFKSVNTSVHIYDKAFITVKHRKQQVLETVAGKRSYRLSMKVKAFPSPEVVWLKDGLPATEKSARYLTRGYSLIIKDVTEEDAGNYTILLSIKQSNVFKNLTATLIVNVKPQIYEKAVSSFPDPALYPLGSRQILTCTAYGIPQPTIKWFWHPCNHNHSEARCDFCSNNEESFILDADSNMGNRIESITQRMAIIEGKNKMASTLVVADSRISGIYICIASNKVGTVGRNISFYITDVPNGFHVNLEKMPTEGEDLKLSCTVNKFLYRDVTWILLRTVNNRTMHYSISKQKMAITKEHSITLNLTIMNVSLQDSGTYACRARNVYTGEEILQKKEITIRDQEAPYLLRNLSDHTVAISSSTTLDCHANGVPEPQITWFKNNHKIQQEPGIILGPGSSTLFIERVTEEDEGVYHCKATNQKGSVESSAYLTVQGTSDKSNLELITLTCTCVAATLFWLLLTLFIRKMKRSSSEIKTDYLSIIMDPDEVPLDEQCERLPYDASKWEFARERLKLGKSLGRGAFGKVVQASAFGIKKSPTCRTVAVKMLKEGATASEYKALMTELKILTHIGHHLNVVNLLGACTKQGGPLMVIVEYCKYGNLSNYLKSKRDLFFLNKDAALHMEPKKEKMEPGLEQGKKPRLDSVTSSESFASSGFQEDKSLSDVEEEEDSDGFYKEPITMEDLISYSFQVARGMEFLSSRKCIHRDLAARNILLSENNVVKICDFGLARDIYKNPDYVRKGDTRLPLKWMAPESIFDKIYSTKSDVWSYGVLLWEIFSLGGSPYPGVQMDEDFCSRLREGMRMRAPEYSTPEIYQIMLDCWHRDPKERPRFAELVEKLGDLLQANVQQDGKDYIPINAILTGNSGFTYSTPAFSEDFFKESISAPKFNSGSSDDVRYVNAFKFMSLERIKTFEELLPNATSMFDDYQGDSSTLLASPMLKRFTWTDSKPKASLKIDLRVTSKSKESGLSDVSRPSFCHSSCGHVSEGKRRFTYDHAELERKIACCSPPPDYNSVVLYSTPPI
Sequence of MAP4K5 (Q9Y4K4 whole entry, species assumed): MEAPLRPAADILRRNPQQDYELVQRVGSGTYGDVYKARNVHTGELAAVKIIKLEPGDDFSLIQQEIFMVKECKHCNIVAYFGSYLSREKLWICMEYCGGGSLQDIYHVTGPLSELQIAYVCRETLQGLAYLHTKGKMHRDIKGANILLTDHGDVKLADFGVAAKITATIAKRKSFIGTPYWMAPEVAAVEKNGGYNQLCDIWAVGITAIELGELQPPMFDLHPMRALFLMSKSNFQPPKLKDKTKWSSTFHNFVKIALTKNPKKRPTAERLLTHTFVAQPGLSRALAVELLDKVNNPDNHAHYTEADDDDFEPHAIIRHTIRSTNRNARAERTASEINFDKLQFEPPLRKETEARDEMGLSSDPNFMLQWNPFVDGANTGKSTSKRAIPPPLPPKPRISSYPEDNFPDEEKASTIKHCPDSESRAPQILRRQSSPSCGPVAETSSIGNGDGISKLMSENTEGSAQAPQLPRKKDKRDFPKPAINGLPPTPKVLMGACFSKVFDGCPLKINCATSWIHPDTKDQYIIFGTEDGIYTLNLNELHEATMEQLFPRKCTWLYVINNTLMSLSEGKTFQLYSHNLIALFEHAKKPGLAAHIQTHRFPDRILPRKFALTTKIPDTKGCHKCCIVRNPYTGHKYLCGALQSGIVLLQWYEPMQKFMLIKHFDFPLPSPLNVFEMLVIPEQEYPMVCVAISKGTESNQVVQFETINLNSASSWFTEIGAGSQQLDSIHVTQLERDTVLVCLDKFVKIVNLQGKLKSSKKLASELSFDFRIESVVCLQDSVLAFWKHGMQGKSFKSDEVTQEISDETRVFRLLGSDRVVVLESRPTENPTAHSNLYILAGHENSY
Sequence of FLT3 (P36888 27-993, species assumed): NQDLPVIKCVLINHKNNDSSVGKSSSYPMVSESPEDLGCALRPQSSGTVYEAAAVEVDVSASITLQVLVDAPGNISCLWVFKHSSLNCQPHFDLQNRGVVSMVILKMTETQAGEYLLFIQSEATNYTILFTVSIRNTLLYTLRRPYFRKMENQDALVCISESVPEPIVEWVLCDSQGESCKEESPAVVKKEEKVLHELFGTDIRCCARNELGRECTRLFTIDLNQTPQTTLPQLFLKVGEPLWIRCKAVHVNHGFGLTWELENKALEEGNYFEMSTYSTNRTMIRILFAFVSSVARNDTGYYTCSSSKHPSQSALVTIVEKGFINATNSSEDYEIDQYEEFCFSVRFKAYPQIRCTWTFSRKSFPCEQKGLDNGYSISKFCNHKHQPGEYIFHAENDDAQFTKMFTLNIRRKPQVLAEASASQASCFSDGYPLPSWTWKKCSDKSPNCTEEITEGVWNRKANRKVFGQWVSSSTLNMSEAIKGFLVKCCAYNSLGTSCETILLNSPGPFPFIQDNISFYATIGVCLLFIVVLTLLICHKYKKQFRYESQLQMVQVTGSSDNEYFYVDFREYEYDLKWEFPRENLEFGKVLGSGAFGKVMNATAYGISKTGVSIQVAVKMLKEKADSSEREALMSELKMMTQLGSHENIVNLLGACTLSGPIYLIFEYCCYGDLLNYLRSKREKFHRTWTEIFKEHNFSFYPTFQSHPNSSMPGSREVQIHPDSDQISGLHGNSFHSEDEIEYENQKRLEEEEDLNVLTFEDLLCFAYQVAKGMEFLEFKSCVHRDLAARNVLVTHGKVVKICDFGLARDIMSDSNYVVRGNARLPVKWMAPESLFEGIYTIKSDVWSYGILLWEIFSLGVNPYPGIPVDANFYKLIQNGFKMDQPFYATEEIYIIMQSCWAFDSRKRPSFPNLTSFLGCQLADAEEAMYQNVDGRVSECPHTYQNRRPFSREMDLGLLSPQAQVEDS
Sequence of Lck (P06239 whole entry, species assumed): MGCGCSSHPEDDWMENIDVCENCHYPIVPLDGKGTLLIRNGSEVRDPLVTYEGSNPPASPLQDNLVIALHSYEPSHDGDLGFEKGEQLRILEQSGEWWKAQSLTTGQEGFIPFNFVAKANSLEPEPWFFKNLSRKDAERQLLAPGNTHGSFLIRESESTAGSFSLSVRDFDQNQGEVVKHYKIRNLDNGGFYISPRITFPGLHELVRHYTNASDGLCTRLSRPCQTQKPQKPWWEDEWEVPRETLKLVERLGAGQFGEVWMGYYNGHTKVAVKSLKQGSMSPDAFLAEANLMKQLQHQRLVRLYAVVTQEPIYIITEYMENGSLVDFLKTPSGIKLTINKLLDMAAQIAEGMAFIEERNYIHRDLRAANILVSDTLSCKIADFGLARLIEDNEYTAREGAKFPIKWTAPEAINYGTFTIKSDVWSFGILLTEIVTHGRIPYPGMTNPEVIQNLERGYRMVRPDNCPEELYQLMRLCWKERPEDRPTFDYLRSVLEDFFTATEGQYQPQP

SMILES: CNC(=O)c1cc(Oc2ccc(NC(=O)Nc3ccc(CN4CCN(C)CC4)c(C(F)(F)F)c3)cc2)ccn1 [Compound C01]
- GI50 [1]: 4.84 µM

SMILES: CN1CCN(Cc2ccc(NC(=O)Nc3ccc(Oc4ccc5cccnc5c4)cc3)cc2C(F)(F)F)CC1 [Compound C06]
- GI50 [1]: 5.22 µM

SMILES: CN1CCN(Cc2ccc(NC(=O)Nc3ccc(Oc4ccncc4)cc3)cc2C(F)(F)F)CC1 [Compound C02]
- GI50 [1]: 5 µM

SMILES: Cc1ccc(C(=O)Nc2ccc(CN3CCN(C)CC3)c(C(F)(F)F)c2)cc1C#Cc1cnc2cccnn12 [ponatinib]
- inhibition at 0.1 µM (PDGFRα): 98%
- inhibition at 0.1 µM (VEGFR2 (KDR) [2]): 100%
- inhibition at 0.1 µM (FGFR3): 91%
- inhibition at 0.1 µM (MAP4K5): 102%
- GI50 (BV-173R): 0.015 µM
- inhibition at 0.1 µM (FGFR1): 102%
- patients with serious vascular AEs ([3]; median follow-up of 2.7 years): 48%
- patients who developed arterial or venous thrombosis and occlusions [3]: Twenty-seven
- patients with heart failure, including fatalities [3]: 8%
- inhibition at 0.1 µM (VEGFR3 (FLT4)): 100%
- % inhibition at 100 nM, VEGFR1 (FLT1) (VEGFR1 (FLT1); 100 nM): 107%
- inhibition at 0.1 µM (VEGFR1 (FLT1); read-out: % inhibition at 100 nM, VEGFR1 (FLT1), 100 nM): 100%
- inhibition at 0.1 µM (C-Raf): 118%
- inhibition at 0.1 µM (EPH-A3): 101%
- inhibition at 0.1 µM (Lyn-A): 99%
- inhibition at 0.1 µM (Tie2): 95%
- GI50 (BV-173): 0.006 µM
- inhibition at 0.1 µM (FLT3): 95%
- % inhibition at 100 nM, VEGFR2 (KDR) (VEGFR2 (KDR) [4]): 102%
- inhibition at 0.1 µM (Abl2/Arg): 99%
- inhibition at 0.1 µM (Csk): 100%
- inhibition at 0.1 µM (PDGFRβ): 108%
- inhibition at 0.1 µM (Lck): 99%
- GI50 (K562): 0.0025 µM

SMILES: CN1CCN(Cc2ccc(NC(=O)Nc3ccc(Oc4ccc5ncccc5c4)cc3)cc2C(F)(F)F)CC1 [Compound C05]
- GI50 [1]: 5.3 µM

SMILES: CN1CCN(Cc2ccc(NC(=O)Nc3ccc(Oc4ccc5ncncc5c4)cc3)cc2C(F)(F)F)CC1 [Compound C03]
- GI50 [1]: 5.58 µM

SMILES: CN1CCN(Cc2ccc(NC(=O)Nc3ccc(Nc4ccc5ncccc5c4)cc3)cc2C(F)(F)F)CC1 [Compound C04]
- GI50 [1]: 5.12 µM

SMILES: Cc1ccc(NC(=O)c2ccc(CN3CCN(C)CC3)cc2)cc1Nc1nccc(-c2cccnc2)n1 [imatinib]
- 5-year overall survival rate [5]: 90%
